{"source": "patent US10647725B2", "about": "“Anti-infective 2-aminothiophenes” (priority 2016, dated 2020)", "key": {"[1]": {"tested_on": "Mtb H37Rv", "experiment": "modified 96-well microplate Alamar blue assay (MABA), growth inhibition", "type": "cell-based, Mycobacterium tuberculosis", "conditions": "for MIC: Mycobacterium tuberculosis, H37RV, Mtb H37Rv; for growth inhibition activity in words: SAR discussion"}, "[2]": {"tested_on": "THP-1 human monoocytic cell line", "experiment": "cytotoxicity towards PMA-differentiated THP-1 cells (CellTiter-Glo)", "type": "cell-based"}, "[3]": {"tested_on": "Mtb H37Rv", "experiment": "minimum bactericidal concentration (MBC), kill kinetics over 21 days", "type": "cell-based", "conditions": "Mycobacterium tuberculosis, 504 h, aerobic, 7H9-Tw-OADC medium, 2-log kill in 21 days"}, "[4]": {"tested_on": "mycolic acid biosynthesis in Mtb", "experiment": "mycolic acid biosynthesis, [1,2-14C]acetate labeling, TLC and autoradiography", "type": "cell-based, Mycobacterium tuberculosis", "conditions": "0.4-4 μg/ml, 16 h"}, "[5]": {"tested_on": "Mycobacterium abscessus", "experiment": "MIC against Mycobacterium abscessus, OD590", "conditions": "Mycobacteroides abscessus", "protocol": "The activity of compounds against Mycobacterium abscessus and Mycobacterium avium was assessed under aerobic conditions by determining the minimum inhibitory concentration of compound (MIC). The strains were M. abscessus subsp. bollettii 103 and M. avium subsp. avium 2285 (S). The assay was based on measurement of growth in liquid medium of each strain where the readout is optical density (OD) or metabolic activity (using Alamar blue).\nThe MIC of compound against Mycobacterium abscessus and Mycobacterium avium was determined by measuring bacterial growth in the presence of test compounds. Compounds were prepared as 20-point two-fold serial dilutions in DMSO and diluted into 7H9-Tw-OADC medium in 96-well plates with a final DMSO concentration of 2%. The highest concentration of compound was 200 μM where compounds were soluble in DMSO at 10 mM. Each plate included assay controls for background (medium/DMSO only, no bacterial cells), zero growth (100 μM rifampicin) and maximum growth (DMSO only), as well as a rifampicin dose response curve.\nFor Mycobacterium abscessus, plates were inoculated with M. abscessus and incubated for 3 days at 37° C.; growth was measured by OD590. […] Rifampicin was included once in each run. […] If no point reached 75% inhibition, the MIC was reported as >maximum concentration tested."}, "[6]": {"tested_on": "Mtb H37Rv", "experiment": "microbe, parasite or virus in culture", "type": "cell-based", "conditions": "Mycobacterium tuberculosis"}, "[7]": {"tested_on": "Mtb H37Rv mc26206", "experiment": "microbe, parasite or virus in culture", "type": "cell-based", "conditions": "Mycobacterium tuberculosis"}, "[8]": {"tested_on": "autoluminescent Mtb strain derived from Mtb H37Rv in THP-1 cells", "experiment": "microbe, parasite or virus in culture", "type": "cell-based", "conditions": "Mycobacterium tuberculosis; for IC50: THP-1, 72 h, read-out: IC50 intracellular activity"}}, "note": "“Also recorded” adds a separate entry of the source."}
{"smiles": "CCN1CCc2c(sc(NC(=O)c3cc(C(F)(F)F)cc(C(F)(F)F)c3)c2C(=O)NCc2ccc(C)cc2)C1", "note": "[4{3,4,3}, 2-(3,5-Bis(trifluoromethyl)benzamido)-6-ethyl-N-(4-methylbenzyl)-4,5,6,7-tetrahydrothieno[2,3-c]pyridine-3-carboxamide]", "values": [{"measurement": "MIC", "setting": "[1]", "value": "≥ 200", "unit": "µg/mL"}]}
{"smiles": "CCOC(=O)c1c(NC(=O)c2c(F)c(F)c(F)c(F)c2F)sc2c1CCN(CC)C2", "note": "[4{3,3,0}, ethyl 6-ethyl-2-(perfluorobenzamido)-4,5,6,7-tetrahydrothieno[2,3-c]pyridine-3-carboxylate]", "values": [{"measurement": "IC50", "setting": "[2]; Homo sapiens, 72 h, THP-1 macrophage-like cells, 3 days, read-out: IC50 (concentration causing a 50% loss in viability)", "value": 6.2, "unit": "µM"}, {"measurement": "macrophage viability IC50 relative to the MIC", "setting": "[2]; times higher than the MIC", "value": 27, "unit": "times"}, {"measurement": "MBC", "setting": "[3]", "value": "< 5", "unit": "µM"}, {"measurement": "increase in potency compared to compound 4{4,3,0}", "setting": "[1]", "value": 40, "unit": "fold"}, {"measurement": "effect on synthesis of mycolic acids (TMM, TDM, mAG-attached mycolates)", "setting": "[4]", "value": "strongly inhibits the biosynthesis of all forms of mycolic acid; also recorded: strongly inhibits the synthesis of all forms of mycolic acids"}, {"measurement": "MIC", "setting": "[5]", "value": 1.11, "unit": "µg/mL"}, {"measurement": "MIC", "setting": "[6]", "value": 0.23, "unit": "µM"}, {"measurement": "MIC", "setting": "[7]", "value": 0.4, "unit": "µg/mL"}, {"measurement": "IC50", "setting": "[8]", "value": 5.6, "unit": "µM"}, {"measurement": "IC90", "setting": "[8]; THP-1, read-out: IC90 intracellular activity", "value": 9.75, "unit": "µM"}]}
{"smiles": "CCOC(=O)c1c(NC(=O)c2c(F)c(F)c(F)c(F)c2F)sc2c1CCN(C(=O)OC(C)(C)C)C2", "note": "[4{2,3,0}, 6-(Tert-butyl) 3-ethyl 2-(perfluorobenzamido)-4,7-dihydrothieno[2,3-c]pyridine-3,6(5H)-dicarboxylate]", "values": [{"measurement": "growth inhibition activity in words", "setting": "[1]", "value": "inactive"}]}
{"smiles": "CCOC(=O)c1cc(-c2ccccc2)sc1NC(=O)c1c(F)c(F)c(F)c(F)c1F", "note": "[4{5,3,0}, Ethyl 2-(perfluorobenzamido)-5-phenylthiophene-3-carboxylate]", "values": [{"measurement": "MIC", "setting": "[1]; read-out: MIC", "value": "> 100", "unit": "µg/mL"}]}
{"smiles": "CCOC(=O)c1c(NC(=O)c2ccccc2)sc2c1CCCC2", "note": "[4{4,2,0}]", "values": [{"measurement": "growth inhibition activity in words", "setting": "[1]", "value": "no activity"}]}
{"smiles": "CCOC(=O)c1c(NC(=O)c2cc(C(F)(F)F)cc(C(F)(F)F)c2)sc2c1CCN(CC)C2", "note": "[4{3,4,0}, Ethyl 2-(3,5-bis(trifluoromethyl)benzamido)-6-ethyl-4,5,6,7-tetrahydrothieno[2,3-c]pyridine-3-carboxylate]", "values": [{"measurement": "MIC", "setting": "[1]; read-out: MIC", "value": "> 100", "unit": "µg/mL"}]}
{"smiles": "NNC(=O)c1ccncc1", "note": "[INH, Isoniazid, reference compound]", "values": [{"measurement": "IC50", "setting": "[8]", "value": 0.24, "unit": "µM"}]}
